Data as given in patent publication US6737383B1, “Herbicidal oxadiazolidines” (priority 1999, dated 2004).

Legend:
bedstraw = assay: Test B pre/postemergence bedstraw; type: in vivo, Galium aparine
Summary of the method: (§1)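 Herbicidal effect was estimated by eye on a ten-point control scale after plants spent twelve to sixteen days in a greenhouse following soil or foliar treatment. Foliar sprays targeted plants at one to four leaves; all doses were formulated in a non-phytotoxic solvent with surfactant.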

blackgrass = assay: Test B pre/postemergence blackgrass; type: in vivo, Alopecurus myosuroides
Summary of the method: as §1

surinam grass = assay: Test B pre/postemergence surinam grass; type: in vivo, Brachiaria decumbens
Summary of the method: as §1

cocklebur = assay: Test B pre/postemergence cocklebur; type: in vivo, Xanthium strumarium
Summary of the method: as §1

corn = assay: Test B pre/postemergence corn; type: in vivo, Zea mays
Summary of the method: as §1

crabgrass = assay: Test B pre/postemergence crabgrass; type: in vivo, Digitaria sanguinalis
Summary of the method: as §1

giant foxtail = assay: Test B pre/postemergence giant foxtail; type: in vivo, Setaria faberii
Summary of the method: as §1

morningglory = assay: Test B pre/postemergence morningglory; type: in vivo, Ipomoea hederacea
Summary of the method: as §1

pigweed = assay: Test B pre/postemergence pigweed; type: in vivo, Amaranthus retroflexus
Summary of the method: as §1

rape = assay: Test B pre/postemergence rape; type: in vivo, Brassica napus
Summary of the method: as §1

soybean = assay: Test B pre/postemergence soybean; type: in vivo, Glycine max
Summary of the method: as §1

sugar beet = assay: Test B pre/postemergence sugar beet; type: in vivo, Beta vulgaris
Summary of the method: as §1

velvetleaf = assay: Test B pre/postemergence velvetleaf; type: in vivo, Abutilon theophrasti
Summary of the method: as §1

wheat = assay: Test B pre/postemergence wheat; type: in vivo, Triticum aestivum
Summary of the method: as §1

wild oat = assay: Test B pre/postemergence wild oat; type: in vivo, Avena fatua
Summary of the method: as §1

purple nutsedge = assay: Test B pre/postemergence purple nutsedge; type: in vivo, Cyperus rotundus
Summary of the method: as §1

[1] = Postemergence, Rate 62 g/ha, scale of 0 to 10, 0 is no effect, 10 is complete control
[2] = Postemergence, Rate 125 g/ha, scale 0 to 10, 0 is no effect, 10 is complete control
[3] = Postemergence, Rate 500 g/ha, scale of 0 to 10 where 0 is no effect and 10 is complete control
[4] = Preemergence, Rate 62 g/ha, scale 0 to 10 (0 no effect, 10 complete control)
[5] = Preemergence, Rate 125 g/ha, scale 0 to 10, 0 is no effect, 10 is complete control
[6] = Preemergence, Rate 500 g/ha, scale of 0 to 10 where 0 is no effect and 10 is complete control
[7] = Rate 250 g/ha, Postemergence, scale of 0 to 10 where 0 is no effect and 10 is complete control

SMILES: CCOCn1c(=O)on(C(=O)N(c2ccccc2)C(C)C)c1=O [Compound 563]
- Bedstraw plant response rating (bedstraw; [1]): 0
- Bedstraw plant response rating (bedstraw; [2]): 0
- Plant response rating, Bedstraw (bedstraw; [3]): 0
- Bedstraw plant response rating (bedstraw; [4]): 0
- Bedstraw plant response rating (bedstraw; [5]): 0
- Bedstraw plant response rating (0 to 10 scale) (bedstraw; Preemergence, Rate 250 g/ha): 0
- Bedstraw plant response rating (bedstraw; [6]): 0
- Blackgrass plant response rating (blackgrass; [1]): 0
- Blackgrass plant response rating (blackgrass; [2]): 0
- Plant response rating, Blackgrass (blackgrass; [3]): 4
- Blackgrass plant response rating (blackgrass; [4]): 2
- Blackgrass plant response rating (blackgrass; [5]): 8
- Blackgrass plant response rating (0 to 10 scale) (blackgrass; Preemergence, Rate 250 g/ha): 9
- Blackgrass plant response rating (blackgrass; [6]): 9
- Plant response rating, Blackgrass (blackgrass; [7]): 4
- B. signalgrass plant response rating (surinam grass; [1]): 0
- B. signalgrass plant response rating (surinam grass; [2]): 4
- Plant response rating, B. signalgrass (surinam grass; [3]): 7
- B. signalgrass plant response rating (surinam grass; [4]): 3
- B. signalgrass plant response rating (surinam grass; [5]): 9
- B. signalgrass plant response rating (0 to 10 scale, 0 is no effect, 10 is complete control) (surinam grass; Preemergence, Rate 250 g/ha): 9
- B. signalgrass plant response rating (surinam grass; [6]): 10
- Plant response rating, B. signalgrass (surinam grass; [7]): 5
- Cocklebur plant response rating (cocklebur; [1]): 0
- Cocklebur plant response rating (cocklebur; [2]): 0
- Plant response rating, Cocklebur (cocklebur; [3]): 2
- Cocklebur plant response rating (cocklebur; [4]): 0
- Cocklebur plant response rating (cocklebur; [5]): 0
- Cocklebur plant response rating (0 to 10 scale) (cocklebur; Preemergence, Rate 250 g/ha): 0
- Cocklebur plant response rating (cocklebur; [6]): 2
- Plant response rating, Cocklebur (cocklebur; [7]): 0
- Corn plant response rating (corn; [1]): 0
- Corn plant response rating (corn; [2]): 0
- Plant response rating, Corn (corn; [3]): 8
- Corn plant response rating (corn; [4]): 0
- Corn plant response rating (corn; [5]): 0
- Corn plant response rating (0 to 10 scale) (corn; Preemergence, Rate 250 g/ha): 4
- Corn plant response rating (corn; [6]): 9
- Plant response rating, Corn (corn; [7]): 4
- Crabgrass plant response rating (crabgrass; [1]): 9
- Crabgrass plant response rating (crabgrass; [2]): 9
- Plant response rating, Crabgrass (crabgrass; [3]): 9
- Crabgrass plant response rating (crabgrass; [4]): 8
- Crabgrass plant response rating (crabgrass; [5]): 9
- Crabgrass plant response rating (0 to 10 scale) (crabgrass; Preemergence, Rate 250 g/ha): 10
- Crabgrass plant response rating (crabgrass; [6]): 9
- Plant response rating, Crabgrass (crabgrass; [7]): 8
- Giant foxtail plant response rating (giant foxtail; [1]): 6
- Giant foxtail plant response rating (giant foxtail; [2]): 8
- Plant response rating, Giant foxtail (giant foxtail; [3]): 9
- Giant foxtail plant response rating (giant foxtail; [4]): 9
- Giant foxtail plant response rating (giant foxtail; [5]): 9
- Giant foxtail plant response rating (0 to 10 scale) (giant foxtail; Preemergence, Rate 250 g/ha): 10
- Giant foxtail plant response rating (giant foxtail; [6]): 10
- Plant response rating, Giant foxtail (giant foxtail; [7]): 8
- Morningglory plant response rating (morningglory; [1]): 4
- Morningglory plant response rating (morningglory; [2]): 6
- Plant response rating, Morningglory (morningglory; [3]): 10
- Morningglory plant response rating (morningglory; [4]): 0
- Morningglory plant response rating (morningglory; [5]): 0
- Morningglory plant response rating (0 to 10 scale) (morningglory; Preemergence, Rate 250 g/ha): 0
- Morningglory plant response rating (morningglory; [6]): 3
- Plant response rating, Morningglory (morningglory; [7]): 10
- Redroot pigweed plant response rating (pigweed; [1]): 0
- Plant response rating, Redroot pigweed (pigweed; [3]): 5
- Redroot pigweed plant response rating (pigweed; [4]): 4
- Redroot pigweed plant response rating (pigweed; [5]): 9
- Redroot pigweed plant response rating (0 to 10 scale) (pigweed; Preemergence, Rate 250 g/ha): 9
- Redroot pigweed plant response rating (pigweed; [6]): 9
- Plant response rating, Redroot pigweed (pigweed; [7]): 5
- Rape plant response rating (rape; [1]): 0
- Rape plant response rating (rape; [2]): 0
- Plant response rating, Rape (rape; [3]): 5
- Rape plant response rating (rape; [4]): 0
- Rape plant response rating (rape; [5]): 4
- Rape plant response rating (0 to 10 scale) (rape; Preemergence, Rate 250 g/ha): 9
- Rape plant response rating (rape; [6]): 9
- Plant response rating, Rape (rape; [7]): 5
- Soybean plant response rating (soybean; [1]): 5
- Plant response rating, Soybean (soybean; [3]): 5
- Soybean plant response rating (soybean; [4]): 0
- Soybean plant response rating (soybean; [5]): 0
- Soybean plant response rating (0 to 10 scale) (soybean; Preemergence, Rate 250 g/ha): 3
- Soybean plant response rating (soybean; [6]): 6
- Plant response rating, Soybean (soybean; [7]): 3
- Sugarbeets plant response rating (sugar beet; [1]): 0
- Plant response rating, Sugarbeets (sugar beet; [3]): 0
- Sugarbeets plant response rating (sugar beet; [4]): 2
- Sugarbeets plant response rating (sugar beet; [5]): 3
- Sugarbeets plant response rating (0 to 10 scale) (sugar beet; Preemergence, Rate 250 g/ha): 3
- Sugarbeets plant response rating (sugar beet; [6]): 4
- Plant response rating, Sugarbeets (sugar beet; [7]): 0
- Velvetleaf plant response rating (velvetleaf; [1]): 0
- Plant response rating, Velvetleaf (velvetleaf; [3]): 4
- Velvetleaf plant response rating (velvetleaf; [4]): 3
- Velvetleaf plant response rating (velvetleaf; [5]): 3
- Velvetleaf plant response rating (0 to 10 scale) (velvetleaf; Preemergence, Rate 250 g/ha): 6
- Velvetleaf plant response rating (velvetleaf; [6]): 7
- Plant response rating, Velvetleaf (velvetleaf; [7]): 2
- Wheat plant response rating (wheat; [1]): 0
- Plant response rating, Wheat (wheat; [3]): 0
- Wheat plant response rating (wheat; [4]): 3
- Wheat plant response rating (wheat; [5]): 8
- Wheat plant response rating (0 to 10 scale) (wheat; Preemergence, Rate 250 g/ha): 9
- Wheat plant response rating (wheat; [6]): 10
- Plant response rating, Wheat (wheat; [7]): 0
- Wild oats plant response rating (wild oat; [1]): 0
- Plant response rating, Wild oats (wild oat; [3]): 0
- Wild oats plant response rating (wild oat; [4]): 2
- Wild oats plant response rating (wild oat; [5]): 9
- Wild oats plant response rating (0 to 10 scale) (wild oat; Preemergence, Rate 250 g/ha): 9
- Wild oats plant response rating (wild oat; [6]): 10
- Plant response rating, Wild oats (wild oat; [7]): 0
- Nutsedge plant response rating (purple nutsedge; [1]): 0
- Nutsedge plant response rating (purple nutsedge; [2]): 0
- Nutsedge plant response rating (purple nutsedge; [4]): 0
- Nutsedge plant response rating (purple nutsedge; [5]): 0
- Nutsedge plant response rating (0 to 10 scale) (purple nutsedge; Preemergence, Rate 250 g/ha): 0
- Plant response rating, Nutsedge (purple nutsedge; [7]): 0
